Results as given in ChEMBL document CHEMBL5034035, “Discovery of an Oxycyclohexyl Acid Lysophosphatidic Acid Receptor 1 (LPA1) Antagonist BMS-986278 for the Treatment of Pulmonary Fibrotic Diseases” (J Med Chem, 2021).
≈ marks a conversion by molar mass, not a printed value.

What was measured:
[1] = Plasma clearance in Sprague-Dawley rat at 3 mg/kg, po or 1 mg/kg, iv measured up to 24 hrs by LC-MS/MS analysis; assay type: ADME, organism-based
[2] = Volume of distribution at steady state in CD-1 mouse at 3 mg/kg, po or 1 mg/kg, iv measured up to 24 hrs by LC-MS/MS analysis; assay type: ADME, organism-based; conditions: in vivo, read-out: Vdss
[3] = Volume of distribution at steady state in cynomolgus monkey at 3 mg/kg, po or 1 mg/kg, iv measured up to 24 hrs by LC-MS/MS analysis; assay type: ADME, organism-based, Macaca fascicularis; conditions: in vivo, read-out: Vdss
[4] = Oral bioavailability in cynomolgus monkey at 3 mg/kg measured up to 24 hrs by LC-MS/MS analysis; assay type: ADME, organism-based, Macaca fascicularis; conditions: in vivo
[5] = Elimination half life in CD-1 mouse at 3 mg/kg, po or 1 mg/kg, iv measured up to 24 hrs by LC-MS/MS analysis; assay type: ADME, organism-based; conditions: in vivo, read-out: beta t1/2 (converted)
CYP2B6 = CYP2B6 (Homo sapiens, UniProt P20813); assay: Induction of CYP2B6 in human hepatocytes; assay type: ADME, cell-based, Hepatocyte
Sequence of CYP2B6 (P20813 whole entry): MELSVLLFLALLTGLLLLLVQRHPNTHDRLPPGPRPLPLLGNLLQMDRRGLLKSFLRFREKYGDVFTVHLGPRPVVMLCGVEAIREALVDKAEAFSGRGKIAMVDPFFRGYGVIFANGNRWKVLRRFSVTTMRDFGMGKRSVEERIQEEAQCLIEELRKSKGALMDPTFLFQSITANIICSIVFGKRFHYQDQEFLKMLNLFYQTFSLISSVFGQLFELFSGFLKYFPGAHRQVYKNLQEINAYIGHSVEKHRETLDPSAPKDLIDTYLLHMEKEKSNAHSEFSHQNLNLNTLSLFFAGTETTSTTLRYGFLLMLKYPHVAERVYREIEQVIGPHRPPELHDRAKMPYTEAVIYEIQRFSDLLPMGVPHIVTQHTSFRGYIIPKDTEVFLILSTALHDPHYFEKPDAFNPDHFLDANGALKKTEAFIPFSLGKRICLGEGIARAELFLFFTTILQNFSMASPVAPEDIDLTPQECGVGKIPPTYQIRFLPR

hERG [6] = target: T1, hERG (Homo sapiens, UniProt Q12809); assay: Inhibition of hERG at 10 uM by electrophysiological assay relative to control
T1 sequence (Q12809 whole entry): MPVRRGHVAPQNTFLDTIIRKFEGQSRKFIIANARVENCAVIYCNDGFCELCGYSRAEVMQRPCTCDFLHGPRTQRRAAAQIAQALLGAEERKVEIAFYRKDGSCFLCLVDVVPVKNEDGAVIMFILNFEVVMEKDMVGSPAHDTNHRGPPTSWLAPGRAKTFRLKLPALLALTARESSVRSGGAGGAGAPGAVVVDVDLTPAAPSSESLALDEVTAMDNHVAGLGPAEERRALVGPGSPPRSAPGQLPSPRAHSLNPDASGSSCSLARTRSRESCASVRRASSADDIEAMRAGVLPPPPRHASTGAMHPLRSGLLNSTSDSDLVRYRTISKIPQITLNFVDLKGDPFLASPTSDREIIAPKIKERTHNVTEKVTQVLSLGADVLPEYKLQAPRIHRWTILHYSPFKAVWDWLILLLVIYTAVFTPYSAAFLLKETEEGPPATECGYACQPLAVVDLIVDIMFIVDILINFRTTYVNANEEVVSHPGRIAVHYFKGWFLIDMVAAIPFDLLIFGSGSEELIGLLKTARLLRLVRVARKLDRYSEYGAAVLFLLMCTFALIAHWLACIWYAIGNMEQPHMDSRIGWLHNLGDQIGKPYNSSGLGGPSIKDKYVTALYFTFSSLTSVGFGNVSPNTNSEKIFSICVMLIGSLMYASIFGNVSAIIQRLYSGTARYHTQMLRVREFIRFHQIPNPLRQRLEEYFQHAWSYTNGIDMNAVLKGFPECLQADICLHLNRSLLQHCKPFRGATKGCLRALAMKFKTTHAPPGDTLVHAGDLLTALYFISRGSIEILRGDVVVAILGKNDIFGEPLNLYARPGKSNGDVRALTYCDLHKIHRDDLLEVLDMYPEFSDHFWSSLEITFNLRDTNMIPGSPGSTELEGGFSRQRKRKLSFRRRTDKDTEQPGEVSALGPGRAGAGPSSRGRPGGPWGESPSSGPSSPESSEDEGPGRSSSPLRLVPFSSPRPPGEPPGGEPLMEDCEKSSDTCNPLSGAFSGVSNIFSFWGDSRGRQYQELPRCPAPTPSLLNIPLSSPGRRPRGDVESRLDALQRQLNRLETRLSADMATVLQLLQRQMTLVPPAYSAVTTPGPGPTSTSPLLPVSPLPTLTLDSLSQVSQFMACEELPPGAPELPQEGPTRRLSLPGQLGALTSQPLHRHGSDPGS

[7] = Aqueous solubility of compound at pH 7.4; assay type: physicochemical
[8] = AUC (0 to 24 hrs) in Cynomolgus monkey plasma at 500 mg/kg, po administered for 4 weeks; assay type: ADME, organism-based, Macaca fascicularis; design: route oral, time 4 weeks, dose 500 mg/kg
[9] = Hepatobiliary toxicity in Cynomolgus monkey assessed as bile duct hyperplasia measured up to 1 month; design: species or system Macaca fascicularis; conditions: in vivo, time <=1 months
[10] = Metabolic stability in liver microsomes (unknown origin) assessed as half life; assay type: ADME, Microsome
[11] = Drug metabolism in human hepatocytes assessed as formation of acyl glucuronide metabolites at 10 uM measured after 2 hrs by LC/UV/MS analysis; assay type: ADME, cell-based, Hepatocyte
[12] = Drug metabolism in human hepatocytes assessed as carbamate hydrolytic product formation at 10 uM measured after 2 hrs by LC/UV/MS analysis; assay type: ADME, cell-based, Hepatocyte
[13] = Hepatobiliary toxicity in Cynomolgus monkey assessed as cholangitis measured up to 1 month; design: species or system Macaca fascicularis; conditions: in vivo, time <=1 months
[14] = Hepatobiliary toxicity in Cynomolgus monkey assessed as cholestasis measured up to 1 month; design: species or system Macaca fascicularis; conditions: time <=1 months
[15] = Hepatobiliary toxicity in Cynomolgus monkey assessed as cholestasis at up to 150 mg/kg/day measured up to 9 month; assay type: organism-based, Macaca fascicularis; conditions: in vivo, time <=9 months
[16] = Hepatobiliary toxicity in Sprague-Dawley rat assessed as cholestasis at up to 100 mg/kg/day measured up to 6 month; assay type: organism-based; conditions: in vivo, time <=6 months
[17] = Hepatobiliary toxicity in Sprague-Dawley rat assessed as bile duct hyperplasia at up to 100 mg/kg/day measured up to 6 months; assay type: organism-based; conditions: in vivo
hERG [18] = target: T1, hERG; assay: Inhibition of hERG at 30 uM by electrophysiological assay relative to control
[19] = Aqueous solubility of compound at pH 7.5; assay type: physicochemical
Rattus norvegicus [20] = assay: (§1) Anti-fibrotic activity in Sprague-Dawley rat model of bleomycin-induced lung fibrosis assessed as decrease in bleomycin-induced collagen deposition at 3 mg/kg, po BID followed by tracheal administration of bleomycin on day 8 and measured on day 21 by Masson's trichrome staining based HALO densitometric analysis relative to control; assay type: functional; design: scale not given: the % may be the effect or the level left; conditions: time 21 day
Rattus norvegicus [21] = assay: as §1, with “10” for “3”; assay type: functional; design: scale not given: the % may be the effect or the level left; conditions: time 21 day
[22] = Hepatobiliary toxicity in Sprague-Dawley rat assessed as cholangitis at up to 100 mg/kg/day measured up to 6 months; assay type: organism-based; conditions: in vivo
[23] = Hepatobiliary toxicity in Cynomolgus monkey assessed as cholangitis at up to 150 mg/kg/day measured up to 9 months; assay type: organism-based, Macaca fascicularis; conditions: in vivo
[24] = AUC (0 to 24 hrs) in Sprague-Dawley rat plasma at 300 mg/kg/day; assay type: ADME, organism-based; design: time < 24 hr, dose 300 mg/kg/day
[25] = AUC (0 to 24 hrs) in Cynomolgus monkey plasma at 150 mg/kg/day; assay type: ADME, organism-based, Macaca fascicularis; design: time < 24 hr, dose 150 mg/kg/day
[26] = Drug metabolism in dog hepatocytes assessed as carbamate hydrolytic product formation at 10 uM measured after 2 hrs by LC/UV/MS analysis; assay type: ADME, cell-based, Canis lupus familiaris, Hepatocyte
[27] = Drug metabolism in monkey hepatocytes assessed as carbamate hydrolytic product formation at 10 uM measured after 2 hrs by LC/UV/MS analysis; assay type: ADME, cell-based, Macaca mulatta, Hepatocyte; conditions: rhesus monkey
[28] = Drug metabolism in mouse hepatocytes assessed as carbamate hydrolytic product formation at 10 uM measured after 2 hrs by LC/UV/MS analysis; assay type: ADME, cell-based, Hepatocyte
Rattus norvegicus [29] = assay: as §1, with “30” for “3”; assay type: functional; design: scale not given: the % may be the effect or the level left
[30] = Hepatobiliary toxicity in Cynomolgus monkey assessed as bile duct hyperplasia at up to 150 mg/kg/day measured up to 9 months; assay type: organism-based, Macaca fascicularis; conditions: in vivo
[31] = Drug metabolism in human hepatocytes assessed as N-demethylation metabolite formation at 10 uM measured after 2 hrs by LC/UV/MS analysis; assay type: ADME, cell-based, Hepatocyte
[32] = Drug metabolism in monkey hepatocytes assessed as N-demethylation metabolite formation at 10 uM measured after 2 hrs by LC/UV/MS analysis; assay type: ADME, cell-based, Macaca mulatta, Hepatocyte; conditions: rhesus monkey
[33] = Drug metabolism in rat hepatocytes assessed as N-demethylation metabolite formation at 10 uM measured after 2 hrs by LC/UV/MS analysis; assay type: ADME, cell-based, Hepatocyte
animal or person [34] = conditions: Mus musculus, CD-1
animal or person [35] = conditions: Mus musculus, CD-1; remark: listed apart in the source
Rattus norvegicus [36] = assay: Anti-fibrotic activity in Sprague-Dawley rat model of bleomycin-induced lung fibrosis assessed as decrease in bleomycin-induced collagen deposition by measuring decrease in PSR-stained lung sections at 30 mg/kg, po BID for 21 days followed by tracheal administration of bleomycin by PSR staining based HALO densitometric analysis relative to control; assay type: functional; design: scale not given: the % may be the effect or the level left; conditions: time 21 day
[37] = AUC (0 to 24 hrs) in Cynomolgus monkey plasma at 50 mg/kg, po administered for 7 days; assay type: ADME, organism-based, Macaca fascicularis; design: route oral, time 7 day, dose 50 mg/kg
hERG (KCNH2) = hERG (KCNH2) (Homo sapiens, UniProt Q12809); assay: Inhibition of hERG at 15 uM by electrophysiological assay relative to control
Sequence of hERG (KCNH2) (Q12809 whole entry): as above

With `Cc1nc(-c2nnn(C)c2COC(=O)N(C)CC2CCC2)ccc1O[C@H]1CCC[C@H](C(=O)O)C1` as the molecule, how does the clearance [1] read?
The clearance was 104 mL/min/kg.

What about the Vd [2] of the same molecule?
Its Vd is 14.6 L/kg.

What about the Vd [3] of the same molecule?
Its Vd is 6.3 L/kg.

What about the bioavailability [4] of the same molecule?
Its bioavailability is 65%.

And the half-life [5]?
The half-life was 1.5 h.

And the IC50 (CYP2B6)?
The IC50 was greater than 50 µM.

And the inhibition at 10 µM (hERG [6])?
Its inhibition at 10 µM is 6%.

What about the solubility [7] of the same molecule?
The solubility was 705 µg/mL (≈ 1500 µM).

And the AUC at 672 h [8]?
Its AUC at 672 h is 962 µg·h/mL.

What about the Activity [9] of the same molecule?
Its Activity is “Non-Toxic”.

And the half-life [10]?
The half-life was greater than 0.917 h.

What about the Drug metabolism [11] of the same molecule?
Its Drug metabolism is “Metabolite_Detected”.

What about the Drug metabolism [12] of the same molecule?
The Drug metabolism was “Metabolite_Notdetected”.

And the Activity [13]?
The Activity was “Non-Toxic”.

And the Activity [14]?
The Activity was “Non-Toxic”.

With `CCCN(C)C(=O)OCc1c(-c2ccc(O[C@H]3CCC[C@H](C(=O)O)C3)c(C)n2)nnn1C` [ADMILPARANT] as the molecule, how does the clearance [1] read?
Its clearance is 15 mL/min/kg.

What about the Vd [2] of the same molecule?
Its Vd is 5.5 L/kg.

What about the Vd [3] of the same molecule?
Its Vd is 1.6 L/kg.

And the bioavailability [4]?
Its bioavailability is 79%.

And the half-life [5]?
The half-life was 2.5 h.

And the Activity [15]?
Its Activity is “Non-Toxic”.

What about the Activity [16] of the same molecule?
Its Activity is “Non-Toxic”.

And the Activity [17]?
Its Activity is “Non-Toxic”.

And the inhibition at 30 µM (hERG [18])?
The inhibition at 30 µM was 35%.

And the solubility [19]?
Its solubility is 6210 µg/mL (≈ 13900 µM).

And the Activity (Rattus norvegicus [20])?
The Activity was 48%.

What about the Activity (Rattus norvegicus [21]) of the same molecule?
The Activity was 56%.

What about the Activity [22] of the same molecule?
The Activity was “Non-Toxic”.

What about the Activity [23] of the same molecule?
The Activity was “Non-Toxic”.

What about the AUC at 24 h [24] of the same molecule?
The AUC at 24 h was 1140 µg·h/mL.

What about the AUC at 24 h [25] of the same molecule?
The AUC at 24 h was 1140 µg·h/mL.

And the Drug metabolism [26]?
Its Drug metabolism is “Metabolite_Detected”.

What about the Drug metabolism [27] of the same molecule?
The Drug metabolism was “Metabolite_Detected”.

And the Drug metabolism [28]?
Its Drug metabolism is “Metabolite_Detected”.

What about the Drug metabolism [12] of the same molecule?
Its Drug metabolism is “Metabolite_Detected”.

What about the Activity (Rattus norvegicus [29]) of the same molecule?
Its Activity is 41%.

What about the Activity [30] of the same molecule?
Its Activity is “Non-Toxic”.

What about the Drug metabolism [31] of the same molecule?
Its Drug metabolism is “Metabolite_Detected”.

And the Drug metabolism [32]?
The Drug metabolism was “Metabolite_Detected”.

What about the Drug metabolism [33] of the same molecule?
Its Drug metabolism is “Metabolite_Detected”.

And the IC50 (animal or person [34])?
The IC50 was 174 µM.

And the IC50 (animal or person [35])?
Its IC50 is 48 µM.

For `Cc1noc(-c2ccc(-c3ccc(C4(C(=O)O)CC4)cc3)cc2)c1NC(=O)O[C@H](C)c1ccccc1` [BMS-986020], which IC50 (CYP2B6) is on record?
Its IC50 is greater than 50 µM.

What about the solubility [7] of the same molecule?
The solubility was 11 µg/mL (≈ 22.8 µM).

What about the Activity (Rattus norvegicus [36]) of the same molecule?
Its Activity is 63%.

And the AUC at 168 h [37]?
Its AUC at 168 h is 74 µg·h/mL.

And the inhibition at 15 µM (hERG (KCNH2))?
Its inhibition at 15 µM is 7%.
